Data as given in US20170312205A1, “USE OF ESTERS OF N-ACYLATED DERIVATIVES OF AMINO ACIDS AND POLYOLS AS AN ANTI-AGEING AGENT FOR HUMAN SKIN” (SOCIETE D'EXPLOITATION DE PRODUITS POUR LES INDUSTRIES …, priority 2014, published 2017).

System: normal human fibroblasts
Test: in vitro study of migration of human fibroblasts (Oris migration plates, Calcein AM labeling)
Format: cell-based
Details: for mean migration distance of the cells (Dmigr): 40 hours incubation at 37° C., mitomycin C pretreated, quadruplicate; for [(Dmigr) − (Dmigr)control]/(Dmigr)control (percentage of migratory effect relative to the control): 40 hours incubation, vs FCS culture control
Text: The fibroblast migration test is a test commonly used in the cosmetics and pharmaceutical sector and is especially described in the international patent application published under the number WO 2010/056908 A1. It allows in vitro reproduction of the phenomenon of fibroblast migration; a decrease in the migratory capacities of the fibroblasts being reported as associated with aging of the skin (1) (4).
Normal human fibroblasts at the R5 passage were amplified in a T75 culture flask and then inoculated at 25 000 cells/well in specific culture plates. These plates are dedicated to migration (Oris™ from Platypus), integrating a central zone without initial deposition of cells (stoppers). After 96 hours of plate amplification and 2 hours before the treatment, all the wells were treated with mitomycin C (2 hours at […]), so as to stop the cell proliferation, and thus to observe only the migration phenomenon. The stoppers were removed, and the references, the products or standard medium for fibroblasts containing 2% fetal calf serum (FCS) were applied to the cells under 100 μl, and then incubated for 40 hours at 37° C. under 5% CO2. Each condition was performed in quadruplicate.
On conclusion of the incubation, the cells were labeled with Calcein AM (5 μM, 20 minutes at 37° C.), so as to visualize the viable cells by fluorescence (revelation of the cytoplasm). Photos were taken, after having inserted a black screen under the culture plates, so as to visualize only the zone where the cells were not deposited. Thus, only the cells which had migrated were photographed (×4 objective lens; with a ×0.7 reducer on the camera adapter). The mean migration distance of the cells (Dmigr) was measured with NIS-Elements-BR 3.0 (4 cells). The means and standard deviations of the distances were calculated on the quadruplicates. The percentages of migratory effect relative to the control, and also the statistics (Student test) were also calculated.

“Epidermal Growth Factor [Epidermal Growth Factor (EGF)]” was tested, and the “mean migration distance of the cells (Dmigr)” value (EGF 10 ng/ml) was 203 ± 20 μm, the “[(Dmigr) − (Dmigr)control]/(Dmigr)control (percentage of migratory effect relative to the control)” value (EGF 10 ng/ml) was “+21%” and the “mean migration distance of the cells (Dmigr)” value (EGF 50 ng/ml) was 212 ± 8 μm. For the same substance, the “[(Dmigr) − (Dmigr)control]/(Dmigr)control (percentage of migratory effect relative to the control)” value (EGF 50 ng/ml) was “+26%” and the “migration distance of the fibroblasts (result in words)” value (EGF at 10 and 50 ng/ml with normal human fibroblasts, validates the model) was “increase in the migration distance”.
